Data reported in ChEMBL document CHEMBL3045826, “Synthesis of new derivatives of 2,2-dimethyl-2,3-dihydro-7-benzo[b]furanol with potential antimicrobial activity” (Med Chem Res, 2009).
Values after ≈ are worked out from the molar mass of the structure shown. Active and inactive are the calls of the source. The rule behind the calls is not given here.

How the values were obtained:
[1] = system: Bordetella bronchiseptica; assay: Antibacterial activity against Bordetella bronchiseptica ATCC 461 at 400 ug after 18 hr by disk diffusion method; assay type: functional; details: for zone of inhibition at 400 µg/disc: ATCC 461, 18 h, read-out: DIZ
[2] = system: Escherichia coli; assay: Antibacterial activity against Escherichia coli ATCC 25922 after 18 hr; assay type: functional, organism-based
[3] = system: Escherichia coli; assay: Antibacterial activity against Escherichia coli ATCC 10538 after 18 hr; assay type: functional, organism-based
[4] = system: Candida albicans; assay: Antifungal activity against Candida albicans ATCC 90028 after 18 hr; assay type: functional; details: ATCC 90028, 18 h
[5] = system: Pseudomonas aeruginosa; assay: Antibacterial activity against Pseudomonas aeruginosa ATCC 15442 after 18 hr; assay type: functional; details: ATCC 15442, 18 h
[6] = system: Staphylococcus aureus; assay: Antibacterial activity against Staphylococcus aureus ATCC 29213 after 18 hr; assay type: functional; details: ATCC 29213, 18 h
[7] = system: Escherichia coli; assay: Antibacterial activity against Escherichia coli NCTC 8196 at 400 ug after 18 hr by disk diffusion method; assay type: functional; details: for zone of inhibition at 400 µg/disc: NCTC 8196, 18 h, read-out: DIZ
[8] = system: Enterococcus hirae; assay: Antibacterial activity against Enterococcus hirae ATCC 10541 at 400 ug after 18 hr by disk diffusion method; assay type: functional; details: for zone of inhibition at 400 µg/disc: ATCC 10541, 18 h, read-out: DIZ
[9] = system: Escherichia coli; assay: Antibacterial activity against Escherichia coli ATCC 10538 at 400 ug after 18 hr by disk diffusion method; assay type: functional
[10] = system: Staphylococcus aureus; assay: Antibacterial activity against Staphylococcus aureus ATCC 29213 at 400 ug after 18 hr by disk diffusion method; assay type: functional; details: for zone of inhibition at 400 µg/disc: ATCC 29213, 18 h, read-out: DIZ
[11] = system: Candida albicans; assay: Antifungal activity against Candida albicans ATCC 10231 after 18 hr; assay type: functional; details: ATCC 10231, 18 h
[12] = system: Staphylococcus aureus; assay: Antibacterial activity against Staphylococcus aureus ATCC 25923 after 18 hr; assay type: functional; details: ATCC 25923, 18 h
[13] = system: Staphylococcus aureus; assay: Antibacterial activity against Staphylococcus aureus NCTC 4163 at 400 ug after 18 hr by disk diffusion method; assay type: functional; details: for zone of inhibition at 400 µg/disc: NCTC 4163, 18 h, read-out: DIZ
[14] = system: Escherichia coli; assay: Antibacterial activity against Escherichia coli ATCC 25922 at 400 ug after 18 hr by disk diffusion method; assay type: functional
[15] = system: Staphylococcus aureus; assay: Antibacterial activity against Staphylococcus aureus ATCC 6538P at 400 ug after 18 hr by disk diffusion method; assay type: functional; details: for zone of inhibition at 400 µg/disc: read-out: DIZ
[16] = system: Pseudomonas aeruginosa; assay: Antibacterial activity against Pseudomonas aeruginosa ATCC 15442 at 400 ug after 18 hr by disk diffusion method; assay type: functional; details: for zone of inhibition at 400 µg/disc: ATCC 15442, 18 h, read-out: DIZ
[17] = system: Candida parapsilosis; assay: Antifungal activity against Candida parapsilosis ATCC 22019 after 18 hr; assay type: functional; details: Lodderomyces parapsilosis, ATCC 22019, 18 h
[18] = system: Proteus vulgaris; assay: Antibacterial activity against Proteus vulgaris NCTC 4635 at 400 ug after 18 hr by disk diffusion method; assay type: functional; details: for zone of inhibition at 400 µg/disc: NCTC 4635, 18 h, read-out: DIZ
[19] = system: Candida albicans; assay: Antifungal activity against Candida albicans ATCC 10231 at 400 ug after 24 to 48 hr by disk diffusion method; assay type: functional; details: for zone of inhibition at 400 µg/disc: read-out: DIZ
[20] = system: Escherichia coli; assay: Antibacterial activity against Escherichia coli NCTC 8196 after 18 hr; assay type: functional, organism-based
[21] = system: Staphylococcus aureus; assay: Antibacterial activity against Staphylococcus aureus ATCC 25923 at 400 ug after 18 hr by disk diffusion method; assay type: functional; details: for zone of inhibition at 400 µg/disc: ATCC 25923, 18 h, read-out: DIZ
[22] = system: Proteus vulgaris; assay: Antibacterial activity against Proteus vulgaris NCTC 4635 after 18 hr; assay type: functional; details: NCTC 4635, 18 h
[23] = system: Candida albicans; assay: Antifungal activity against Candida albicans ATCC 90028 at 400 ug after 24 to 48 hr by disk diffusion method; assay type: functional; details: for zone of inhibition at 400 µg/disc: read-out: DIZ
[24] = system: Staphylococcus aureus; assay: Antibacterial activity against Staphylococcus aureus ATCC 6538P after 18 hr; assay type: functional
[25] = system: Pseudomonas aeruginosa; assay: Antibacterial activity against Pseudomonas aeruginosa NCTC 6749 at 400 ug after 18 hr by disk diffusion method; assay type: functional, organism-based
[26] = system: Staphylococcus aureus; assay: Antibacterial activity against Staphylococcus aureus NCTC 4163 after 18 hr; assay type: functional; details: NCTC 4163, 18 h
[27] = system: Pseudomonas aeruginosa; assay: Antibacterial activity against Pseudomonas aeruginosa NCTC 6749 after 18 hr; assay type: functional, organism-based
[28] = system: Candida parapsilosis; assay: Antifungal activity against Candida parapsilosis ATCC 22019 at 400 ug after 24 to 48 hr by disk diffusion method; assay type: functional; details: for zone of inhibition at 400 µg/disc: Lodderomyces parapsilosis, read-out: DIZ
[29] = system: Bordetella bronchiseptica; assay: Antibacterial activity against Bordetella bronchiseptica ATCC 461 after 18 hr; assay type: functional, organism-based
[30] = system: Bacillus subtilis; assay: Antibacterial activity against Bacillus subtilis ATCC 6633 at 400 ug after 18 hr by disk diffusion method; assay type: functional; details: for zone of inhibition at 400 µg/disc: ATCC 6633, 18 h, read-out: DIZ
[31] = system: Bacillus subtilis; assay: Antibacterial activity against Bacillus subtilis ATCC 6633 after 18 hr; assay type: functional; details: ATCC 6633, 18 h
[32] = system: Enterococcus hirae; assay: Antibacterial activity against Enterococcus hirae ATCC 10541 after 18 hr; assay type: functional; details: ATCC 10541, 18 h
[33] = system: Human immunodeficiency virus 1; assay: Antiviral activity against Human immunodeficiency virus 1 infected human MT4 cells assessed as inhibition of virus-induced cytopathogenicity after 4 days by MTT assay; assay type: functional, organism-based; details: Human immunodeficiency virus 1, MT4, 96 h
[34] = Cytotoxicity against Homo sapiens (human) MT4 cells after 96 hr by MTT assay; assay type: cell-based

| SMILES | zone of inhibition at 400 µg/disc [1] | MIC [2] | MIC [3] | MIC [4] | MIC [5] | MIC [6] | zone of inhibition at 400 µg/disc [7] | zone of inhibition at 400 µg/disc [8] | zone of inhibition at 400 µg/disc [10] | MIC [11] | MIC [12] | zone of inhibition at 400 µg/disc [13] | zone of inhibition at 400 µg/disc [15] | zone of inhibition at 400 µg/disc [16] | MIC [17] | zone of inhibition at 400 µg/disc [18] | zone of inhibition at 400 µg/disc [19] | MIC [20] | zone of inhibition at 400 µg/disc [21] | diameter of the inhibition zone (DIZ) [25] | other results |
| --- | --- | --- | --- | --- | --- | --- | --- | --- | --- | --- | --- | --- | --- | --- | --- | --- | --- | --- | --- | --- | --- |
| CN(C)CC(O)COc1c(Br)c(Br)c(Br)c2c1OC(C)(C)C2 (configuration not stated) | 13 mm | inactive | inactive | 200 µg/mL (≈ 398 µM) | 25 µg/mL (≈ 49.8 µM) | 100 µg/mL (≈ 199 µM) | 15 mm | 19 mm | 19 mm | 200 µg/mL (≈ 398 µM) | 100 µg/mL (≈ 199 µM) | 18 mm | 19 mm | 23 mm | 100 µg/mL (≈ 199 µM) | 23 mm | 17 mm | inactive | 18 mm | inactive | zone of inhibition at 400 µg/disc ([9]; ATCC 10538, 18 h, read-out: DIZ): 13 mm; zone of inhibition at 400 µg/disc ([14]; ATCC 25922, 18 h, read-out: DIZ): 13 mm; MIC [22]: 25 µg/mL (≈ 49.8 µM); zone of inhibition at 400 µg/disc [23]: 15 mm; MIC [24]: 50 µg/mL (≈ 99.6 µM); MIC [26]: 50 µg/mL (≈ 99.6 µM); MIC [27]: inactive; zone of inhibition at 400 µg/disc [28]: 20 mm; MIC [29]: inactive; zone of inhibition at 400 µg/disc [30]: 24 mm; MIC [31]: 12.5 µg/mL (≈ 24.9 µM); MIC [32]: 50 µg/mL (≈ 99.6 µM) |
| CC1(C)Cc2c(Br)c(Br)c(Br)c(OCC(O)CN3CCN(c4ccccc4)CC3)c2O1 (configuration not stated) | – | – | – | – | – | – | – | – | – | – | – | – | – | – | – | – | – | – | – | – | EC50 [33]: > 31 µM; CC50 at 96 h [34]: 31 µM |
| CC1(C)Cc2c(Br)c(Br)c(Br)c(OCC(O)CN3CCN(c4ccc(F)cc4)CC3)c2O1 (configuration not stated) | – | – | – | – | – | – | – | – | – | – | – | – | – | – | – | – | – | – | – | inactive | diameter of the inhibition zone (DIZ) [1]: inactive; diameter of the inhibition zone (DIZ) [7]: inactive; diameter of the inhibition zone (DIZ) [8]: inactive; diameter of the inhibition zone (DIZ) [9]: inactive; diameter of the inhibition zone (DIZ) [10]: inactive; diameter of the inhibition zone (DIZ) [13]: inactive; diameter of the inhibition zone (DIZ) [14]: inactive; diameter of the inhibition zone (DIZ) [15]: inactive; diameter of the inhibition zone (DIZ) [16]: inactive; diameter of the inhibition zone (DIZ) [18]: inactive; diameter of the inhibition zone (DIZ) [19]: inactive; diameter of the inhibition zone (DIZ) [21]: inactive; diameter of the inhibition zone (DIZ) [23]: inactive; diameter of the inhibition zone (DIZ) [28]: inactive; diameter of the inhibition zone (DIZ) [30]: inactive |
| CC(C)NCC(O)COc1c(Br)c(Br)c(Br)c2c1OC(C)(C)C2 (configuration not stated) | 11 mm | inactive | inactive | 200 µg/mL (≈ 388 µM) | 12.5 µg/mL (≈ 24.2 µM) | 25 µg/mL (≈ 48.4 µM) | 11 mm | 17 mm | 20 mm | 200 µg/mL (≈ 388 µM) | 25 µg/mL (≈ 48.4 µM) | 20 mm | 21 mm | 22 mm | 100 µg/mL (≈ 194 µM) | 24 mm | 16 mm | inactive | 18 mm | inactive | diameter of the inhibition zone (DIZ) [9]: inactive; diameter of the inhibition zone (DIZ) [14]: inactive; MIC [22]: 12.5 µg/mL (≈ 24.2 µM); zone of inhibition at 400 µg/disc [23]: 15 mm; MIC [24]: 25 µg/mL (≈ 48.4 µM); MIC [26]: 50 µg/mL (≈ 96.9 µM); MIC [27]: inactive; zone of inhibition at 400 µg/disc [28]: 17 mm; MIC [29]: inactive; zone of inhibition at 400 µg/disc [30]: 23 mm; MIC [31]: 12.5 µg/mL (≈ 24.2 µM); MIC [32]: 25 µg/mL (≈ 48.4 µM) |
